The values below come from ChEMBL document CHEMBL1268938, “Identification of a red-emitting fluorescent ligand for in vitro visualization of human serotonin 5-HT(1A) receptors” (Bioorg Med Chem Lett, 2010).

The test deals with T1, 5-hydroxytryptamine receptor 1A (Homo sapiens, UniProt P08908).
T1 sequence (P08908 whole entry): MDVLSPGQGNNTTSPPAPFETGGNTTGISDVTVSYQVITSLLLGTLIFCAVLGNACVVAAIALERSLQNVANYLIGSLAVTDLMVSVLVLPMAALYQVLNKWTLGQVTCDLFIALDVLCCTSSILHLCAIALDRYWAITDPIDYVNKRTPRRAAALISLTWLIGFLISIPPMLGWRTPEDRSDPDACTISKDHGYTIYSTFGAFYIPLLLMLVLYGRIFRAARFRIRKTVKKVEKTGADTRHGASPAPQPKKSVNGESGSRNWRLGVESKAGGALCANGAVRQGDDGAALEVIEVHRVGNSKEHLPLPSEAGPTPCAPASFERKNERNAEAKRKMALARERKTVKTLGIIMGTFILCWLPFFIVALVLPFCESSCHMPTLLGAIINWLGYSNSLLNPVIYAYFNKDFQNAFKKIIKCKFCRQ
Kind of test: Displacement of [3H]8-OH-DPAT from human cloned 5HT1A receptor expressed in HEK293 cells. The test is classed as cell-based.
In the case of `COc1ccccc1N1CCN(CCc2cccc(OCCCCCOc3cccc(CCN4CCN(c5ccccc5OC)CC4)c3)c2)CC1`, the Ki was found to be 1.7 nM.
With `CCN(CC)c1ccc2cc(/C=C/C3=[N+](CCCCCC(=O)Oc4cccc(CCN5CCN(c6ccccc6OC)CC5)c4)c4ccccc4C3(C)C)c(=O)oc2c1` the figure was 35 nM; with `COc1cccc(CCN2CCN(c3ccccc3OC)CC2)c1`, 2.4 nM.
With `COc1ccccc1N1CCN(CCCCCNC(=O)c2ccc(SC3=C(/C=C/C4=[N+](CCCCS(=O)(=O)[O-])c5ccccc5C4(C)C)CCC/C3=C\C=C3\N(CCCCS(=O)(=O)O)c4ccccc4C3(C)C)cc2)CC1` the figure was 65.8 nM.
With `CCCCCN1CCN(c2ccccc2OC)CC1` the figure was 5.16 nM.
